17 compounds from patent US8822505B2, “Azetidine derivatives” (Hoffmann-La Roche Inc., priority 2012, dated 2014) can be followed below.

The structures appear in SMILES notation. pIC50: −log10 of the molar value. Where a name gives a salt, the structure may show the parent alone.

One assay deals with human Cat L (Homo sapiens (Human), UniProt P07711). Briefly: Cathepsin enzyme inhibition assay (human Cat L). It counts as biochemical. The following applies: enzyme 1 nM, substrate Z-Val-Val-Arg-AMC 20 μM. As to the method:
(§1) Cathepsin Enzyme Inhibition Assay
(§2) Enzyme activity is measured by observing the increase in fluorescence intensity caused by cleavage of a peptide substrate containing a fluorophore whose emission is quenched in the intact peptide.
(§3) Assay buffer: 100 mM potassium phosphate pH 6.5, EDTA-Na 5 mM, Triton X-100 0.001%, DTT 5 mM.
(§4) Enzymes (all at 1 nM): human and mouse Cathepsin S, Cat K, Cat B, Cat L.
(§5) Substrate (20 μM): Z-Val-Val-Arg-AMC, except for Cat K which uses Z-Leu-Arg-AMC (both from Bachem).
Excitation 360 nm, Emission 465 nm.
Enzyme is added to the substance dilutions in 96-well microtitre plates and the reaction is started with substrate. Fluorescence emission is measured over 20 minutes, during which time a linear increase is observed in the absence of inhibitor. IC50 are calculated by standard methods.
Inhibition of human Cat S, mouse Cat S, human Cat K, human Cat B, human Cat L and mouse Cat L have been measured separately. The results obtained for human Cat S and L for representative compounds of the invention are expressed in the following table in μM.

Another assay addresses human Cat S (Homo sapiens (Human), UniProt P25774). In words: Cathepsin enzyme inhibition assay (human Cat S). As to conditions: enzyme 1 nM, substrate Z-Val-Val-Arg-AMC 20 μM. It counts as biochemical. As to the method:
as §1, §2, §3, §4, §5
Enzyme is added to the substance dilutions in 96-well microtitre plates and the reaction is started with substrate. […] IC50 are calculated by standard methods.
Inhibition of human Cat S, mouse Cat S, human Cat K, human Cat B, human Cat L and mouse Cat L have been measured separately.

human Cat S, sequence (P25774 115-331): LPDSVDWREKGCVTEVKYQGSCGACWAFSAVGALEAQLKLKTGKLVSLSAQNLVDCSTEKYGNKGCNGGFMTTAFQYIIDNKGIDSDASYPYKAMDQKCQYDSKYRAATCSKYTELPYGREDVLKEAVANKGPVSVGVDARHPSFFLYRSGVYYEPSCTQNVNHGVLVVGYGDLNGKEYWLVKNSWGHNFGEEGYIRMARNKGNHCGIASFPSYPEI
human Cat L, sequence (P07711 114-333): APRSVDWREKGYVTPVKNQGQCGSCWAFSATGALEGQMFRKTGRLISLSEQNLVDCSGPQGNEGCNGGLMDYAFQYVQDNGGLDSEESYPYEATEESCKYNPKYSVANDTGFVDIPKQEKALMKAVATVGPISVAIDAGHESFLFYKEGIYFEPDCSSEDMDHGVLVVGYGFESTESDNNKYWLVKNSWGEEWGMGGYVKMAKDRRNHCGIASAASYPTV

For orientation: pIC50 means −log10 of the IC50, conventionally taken in molar units. The low end stands for a high IC50, the high end for a low IC50. In the case of `CC(C)(C)OC(=O)N1CCC1(C(=O)N1C[C@H](S(=O)(=O)c2ccc(F)cc2Cl)C[C@H]1C(=O)NC1(C#N)CC1)c1ncc(Br)cc1F` (stereo partly drawn) [Example 25, 2-(5-Bromo-3-fluoro-pyridin-2-yl)-2-[(2S,4R)-4-(2-chloro-4-fluoro-benzenesulfonyl)-2-(1-cyano-cyclopropylcarbamoyl)-pyrrolidine-1-carbonyl]-azetidine-1-carboxylic acid tert-butyl ester], the pIC50 was 5.54 against human Cat L (pH 6.5) and 9.31 against human Cat S (pH 6.5).

For the compound `N#CC1(NC(=O)[C@@H]2C[C@@H](S(=O)(=O)c3ccc(OCC(F)(F)F)cc3Cl)CN2C(=O)C2(c3ncc(Cl)cc3F)CNC2)CC1` [Example 20, (2S,4R)-1-(3-(5-Chloro-3-fluoropyridin-2-yl)azetidine-3-carbonyl)-4-(2-chloro-4-(2,2,2-trifluoroethoxy)phenylsulfonyl)-N-(1-cyanocyclopropyl)pyrrolidine-2-carboxamide], the pIC50 at human Cat L (pH 6.5) was 7.11; against human Cat S (pH 6.5), 8.54.

With `CC(C)(C)OC(=O)N1CC(C(=O)N2C[C@H](S(=O)(=O)c3ccc(OCC(F)(F)F)cc3Cl)C[C@H]2C(=O)NC2(C#N)CC2)(c2ccc(Cl)cn2)C1` [Example 4, 3-(5-Chloro-pyridin-2-yl)-3-[(2S,4R)-4-[2-chloro-4-(2,2,2-trifluoro-ethoxy)-benzenesulfonyl]-2-(1-cyano-cyclopropylcarbamoyl)-pyrrolidine-1-carbonyl]-azetidine-1-carboxylic acid tert-butyl ester], the pIC50 against human Cat L (pH 6.5) was 5.91; at human Cat S (pH 6.5), 8.56.

As to `Cn1cc(-c2ccc(S(=O)(=O)[C@@H]3C[C@@H](C(=O)NC4(C#N)CC4)N(C(=O)C4(c5ncc(Br)cc5F)CCN4)C3)c(Cl)c2)cn1` (stereo partly drawn) [Example 48, (2S,4R)-1-[2-(5-Bromo-3-fluoro-pyridin-2-yl)-azetidine-2-carbonyl]-4-[2-chloro-4-(1-methyl-1H-pyrazol-4-yl)-benzenesulfonyl]-pyrrolidine-2-carboxylic acid (1-cyano-cyclopropyl)-amide hydrochloride], the pIC50 against human Cat L (pH 6.5) is 7.00; against human Cat S (pH 6.5) it was 8.73.

In the case of `CC(C)(C)OC(=O)N1CCC1(C(=O)N1C[C@H](S(=O)(=O)c2ccc(F)cc2Cl)C[C@H]1C(=O)NC1(C#N)CC1)c1ncc(Cl)cc1F` (stereo partly drawn) [Example 23, 2-[(2S,4R)-4-(2-Chloro-4-fluoro-benzenesulfonyl)-2-(1-cyano-cyclopropylcarbamoyl)-pyrrolidine-1-carbonyl]-2-(5-chloro-3-fluoro-pyridin-2-yl)-azetidine-1-carboxylic acid tert-butyl ester], the pIC50 against human Cat L (pH 6.5) is 5.70; on human Cat S (pH 6.5) it was 9.42.

Turning to `CC(C)(C)OC(=O)N1CCC1(C(=O)N1C[C@H](S(=O)(=O)c2ccc(F)cc2Cl)C[C@H]1C(=O)NC1(C#N)CC1)c1ncc(Br)cc1F` (stereo partly drawn) [Example 26, 2-(5-Bromo-3-fluoro-pyridin-2-yl)-2-[(2S,4R)-4-(2-chloro-4-fluoro-benzenesulfonyl)-2-(1-cyano-cyclopropylcarbamoyl)-pyrrolidine-1-carbonyl]-azetidine-1-carboxylic acid tert-butyl ester], the pIC50 was 6.33 against human Cat L (pH 6.5) and 8.35 against human Cat S (pH 6.5).

Consider `COc1ccc(S(=O)(=O)[C@@H]2C[C@@H](C(=O)NC3(C#N)CC3)N(C(=O)C3(c4ccc(Cl)cn4)CN(C)C3)C2)c(Cl)c1` [Example 3, (2S,4R)-4-(2-Chloro-4-methoxy-benzenesulfonyl)-1-[3-(5-chloro-pyridin-2-yl)-1-methyl-azetidine-3-carbonyl]-pyrrolidine-2-carboxylic acid (1-cyano-cyclopropyl)-amide], for which the results for the pIC50 against human Cat L (pH 6.5) and against human Cat S (pH 6.5) were 6.53 and 8.92, respectively.

Regarding `COc1ccc(S(=O)(=O)[C@@H]2C[C@@H](C(=O)NC3(C#N)CC3)N(C(=O)C3(c4ccc(Cl)cn4)CNC3)C2)c(Cl)c1` [Example 2, (2S,4R)-4-(2-Chloro-4-methoxy-benzenesulfonyl)-1-[3-(5-chloro-pyridin-2-yl)-azetidine-3-carbonyl]-pyrrolidine-2-carboxylic acid (1-cyano-cyclopropyl)-amide], the pIC50 is 7.42 against human Cat L (pH 6.5) and 8.83 on human Cat S (pH 6.5).

With `N#CC1(NC(=O)[C@@H]2C[C@@H](S(=O)(=O)c3ccc(OCC(F)(F)F)cc3Cl)CN2C(=O)C2(c3ccc(Br)cn3)CN(CC(F)F)C2)CC1` [Example 9, (2S,4R)-1-[3-(5-Bromo-pyridin-2-yl)-1-(2,2-difluoro-ethyl)-azetidine-3-carbonyl]-4-[2-chloro-4-(2,2,2-trifluoro-ethoxy)-benzenesulfonyl]-pyrrolidine-2-carboxylic acid (1-cyano-cyclopropyl)-amide], the pIC50 on human Cat L (pH 6.5) is 7.04; against human Cat S (pH 6.5) it was 9.11.

Turning to `CCN1CC(C(=O)N2C[C@H](S(=O)(=O)c3ccccc3Cl)C[C@H]2C(=O)NC2(C#N)CC2)(c2ncc(Br)cc2F)C1` [Example 15, (2S,4R)-1-[3-(5-Bromo-3-fluoro-pyridin-2-yl)-1-ethyl-azetidine-3-carbonyl]-4-(2-chloro-benzenesulfonyl)-pyrrolidine-2-carboxylic acid (1-cyano-cyclopropyl)-amide], the pIC50 was 7.70 against human Cat L (pH 6.5) and 9.14 on human Cat S (pH 6.5).

For `C[C@H](Oc1ccc(S(=O)(=O)[C@@H]2C[C@@H](C(=O)NC3(C#N)CC3)N(C(=O)C3(c4ncc(Cl)cc4F)CCN3)C2)c(Cl)c1)C(F)(F)F` (stereo partly drawn) [Example 37, (2S,4R)-1-[2-(5-Chloro-3-fluoro-pyridin-2-yl)-azetidine-2-carbonyl]-4-[2-chloro-4-((S)-2,2,2-trifluoro-1-methyl-ethoxy)-benzenesulfonyl]-pyrrolidine-2-carboxylic acid (1-cyano-cyclopropyl)-amide hydrochloride], the pIC50 is 7.23 on human Cat L (pH 6.5, hydrochloride) and 8.42 against human Cat S (pH 6.5, hydrochloride).

Take `N#CC1(NC(=O)[C@@H]2C[C@@H](S(=O)(=O)c3ccc(OCC(F)(F)F)cc3Cl)CN2C(=O)C2(c3ncc(Br)cc3F)CNC2)CC1` [Example 19, (2S,4R)-1-(3-(5-Bromo-3-fluoropyridin-2-yl)azetidine-3-carbonyl)-4-(2-chloro-4-(2,2,2-trifluoroethoxy)phenylsulfonyl)-N-(1-cyanocyclopropyl)pyrrolidine-2-carboxamide]: the negative-log IC50 (pIC50) against human Cat L (pH 6.5) is 7.47; against human Cat S (pH 6.5), 8.78.

For `N#CC1(NC(=O)[C@@H]2C[C@@H](S(=O)(=O)c3ccc(F)cc3Cl)CN2C(=O)C2(c3ncc(Cl)cc3F)CCN2)CC1` (stereo partly drawn) [Example 35, (2S,4R)-4-(2-Chloro-4-fluoro-benzenesulfonyl)-1-[2-(5-chloro-3-fluoro-pyridin-2-yl)-azetidine-2-carbonyl]-pyrrolidine-2-carboxylic acid (1-cyano-cyclopropyl)-amide hydrochloride], the pIC50 is 5.84 against human Cat L (pH 6.5, hydrochloride) and 8.89 on human Cat S (pH 6.5, hydrochloride).

As to `COC(=O)N1CC(C(=O)N2C[C@H](S(=O)(=O)c3ccc(O[C@@H](C)C(F)(F)F)cc3Cl)C[C@H]2C(=O)NC2(C#N)CC2)(c2ncc(Br)cc2F)C1` [Example 51, 3-(5-Bromo-3-fluoro-pyridin-2-yl)-3-[(2S,4R)-4-[2-chloro-4-((S)-2,2,2-trifluoro-1-methyl-ethoxy)-benzenesulfonyl]-2-(1-cyano-cyclopropylcarbamoyl)-pyrrolidine-1-carbonyl]-azetidine-1-carboxylic acid methyl ester], the negative logarithm of the IC50 (pIC50) against human Cat L (pH 6.5) was 8.15; at human Cat S (pH 6.5), 8.70.

Take `N#CC1(NC(=O)[C@@H]2C[C@@H](S(=O)(=O)c3ccc(OCC(F)(F)F)cc3Cl)CN2C(=O)C2(c3ccc(Cl)cn3)CN(CC(F)F)C2)CC1` [Example 8, (2S,4R)-1-[3-(5-Chloro-pyridin-2-yl)-1-(2,2-difluoro-ethyl)-azetidine-3-carbonyl]-4-[2-chloro-4-(2,2,2-trifluoro-ethoxy)-benzenesulfonyl]-pyrrolidine-2-carboxylic acid (1-cyano-cyclopropyl)-amide]: the pIC50 was 6.85 on human Cat L (pH 6.5) and 9.16 at human Cat S (pH 6.5).

Regarding `C[C@H](Oc1ccc(S(=O)(=O)[C@@H]2C[C@@H](C(=O)NC3(C#N)CC3)N(C(=O)C3(c4ncc(Br)cc4F)CNC3)C2)c(Cl)c1)C(F)(F)F` [Example 34, (2S,4R)-1-[3-(5-Bromo-3-fluoro-pyridin-2-yl)-azetidine-3-carbonyl]-4-[2-chloro-4-((S)-2,2,2-trifluoro-1-methyl-ethoxy)-benzenesulfonyl]-pyrrolidine-2-carboxylic acid (1-cyano-cyclopropyl)-amide], the figures for the pIC50 at human Cat L (pH 6.5) and against human Cat S (pH 6.5) were 7.85 and 8.46, respectively.

Regarding `N#CC1(NC(=O)[C@@H]2C[C@@H](S(=O)(=O)c3ccccc3Cl)CN2C(=O)C2(c3ncc(Br)cc3F)CNC2)CC1` [Example 13, (2S,4R)-1-[3-(5-Bromo-3-fluoro-pyridin-2-yl)-azetidine-3-carbonyl]-4-(2-chloro-benzenesulfonyl)-pyrrolidine-2-carboxylic acid (1-cyano-cyclopropyl)-amide], the pIC50 against human Cat L (pH 6.5) is 8.34; on human Cat S (pH 6.5), 8.96.
